# In article PMC9305971, “Development of [^18F]AmBF3 Tetrazine for Radiolabeling of Peptides: Preclinical Evaluation and PET Imaging of [^18F]AmBF3-PEG7-Tyr^3-Octreotide in an AR42J Pancreatic Carcinoma Model” (Bioconjugate Chemistry, 2022):
# How the values were obtained:
# [1] = Ex vivo radiometabolite analysis in mouse blood and urine (radio-TLC, radio-HPLC); conditions: for radiotracer intact in blood and urine: 60 min post injection, ex vivo
# Description: After tracer injection, CO2 asphyxiation, and cervical dislocation, blood was collected from a cardiac puncture into a tube containing 2 μL of 1% heparin (diluted from 5100 IU/mL) in 0.9% NaCl (aq.). The sample was centrifuged (1000g, 10 min) to separate the plasma from the blood cells. Cold acetonitrile (2 × vol of plasma) was added and centrifuged (10,000g for 5 min) to precipitate the proteins. A sample (100 μL) of the supernatant was injected into HPLC for radio-HPLC analysis. For the tracer [^18F]14, the supernatant was sampled also on TLC for digital autoradiography analysis.
# Whole blood from mice were extracted during ex vivo studies, using cardiac puncture. The sample was applied in a microtube containing 1% heparin solution in 0.9% NaCl (aq.) (2 μL); the sample was centrifuged (1000g, 10 min), the total radioactivity in the sample was measured with a γ counter, the supernatant was separated from the pellet (RBC containing fraction), and cold ACN (500 μL) was added. The sample was centrifuged (10,000g, 5 min) to remove the free fraction from the precipitated protein-containing pellet. The pellet (protein-bound fraction) and the supernatant (free fraction) were measured with a γ counter, and a sample (100 μL) was injected into HPLC and spotted (4 μL) on a TLC plate (radio-TLC, TLC silica gel 60 F254, ACN/water 80:20).
# Figure S26. Ex vivo stability of [18F]AmBF3-PEG4-TOC ([18F]14) in AR42J tumor bearing mouse blood 5 and 30 minutes post-injection (Radio-TLC). […]
# retardation factor (Rf) of Rf = 40 mm. At 30 minutes post-injection the radiometabolite at 40 mm had disappeared and instead a highly polar metabolite (2.8%) at 4.0 mm was visible, and was accompanied by another metabolite (2.0%) eluting in the immediate vicinity of [18F]14 at Rf = 58 mm. At 60 minutes post-injection the tracer accounted for ≥99% of the radioactivity both in blood and urine (ex vivo). […]
# (1 picture or pasted object on this page, not shown here)
# [2] = Dosimetry from dynamic PET, extrapolated to adult humans (OLINDA/EXM); assay type: in vivo, Rj:NMRI-Foxn1^nu/nu mice; conditions: extrapolated to adult human
# Description: Dosimetry of [^18F]15 was calculated from the acquired PET/CT imaging data with Molecubes PET (β-CUBE) coupled with a CT (X-CUBE) (Ghent, Belgium). Regions of interest were drawn on source organs, namely, the heart, kidneys, liver, and lungs. Time–activity curves (TAC) were converted from mouse to human time −activity curves with the following equation [drawing 1] where morgan,h and WBh are the organ and whole-body weights for human, respectively. Mass morgan,m and WBm are the organ weight and the whole-body weight for mouse, respectively. Time–activity curves were normalized to 1 MBq injection, and the physical decay correction was removed. After this, the TAC’s were extrapolated into 3000 min, which corresponds in practice to infinity. Numbers of disintegrations in source organs are defined by integrating TAC from time 0 to 3000 min, and this value is input for OLINDA/EXM (version 2.1, Vanderbilt University, 2012) dosimetry software, where ICRP 89 reference adult male (73 kg) and ICRP 103 radiation weighting factors were used. Absorbed doses to each target organ are given in units mGy/MBq, and the effective dose is in units mSv/MBq.
# Table S3. Dosimetry calculations.
# Results after intravenous administration of [18F]15 from OLINDA/EXM (Version 2.1, Vanderbilt University, 2012), where ICRP 89 reference adult male (73 kg) and ICRP 103 radiation weighting factors were used. Absorbed doses to each target organ is given in units mGy/MBq and the effective dose in units mSv/MBq. The difference in radiation burden based on baseline (non-block) and blocked mice is negligible.
# Target organ Baseline Avg. Baseline Std. Blocked Avg. Blocked Std. […]
# [3] = 30 minutes post-injection, radio-TLC
compound,measurement,setting,value
C[C@@H](O)[C@@H]1NC(=O)[C@H](CCCCN)NC(=O)[C@@H](Cc2c[nH]c3ccccc23)NC(=O)[C@H](Cc2ccc(O)cc2)NC(=O)[C@@H](NC(=O)[C@@H](Cc2ccccc2)NC(=O)CCOCCOCCOCCOCCON=Cc2ccc(CNC(=O)OC3CCCc4cnnc(-c5ccc(CC(=O)NCC[N+](C)(C)C[B-](F)(F)F)cc5)c4CC3)cc2)CSSC[C@@H](C(=O)N[C@H](CO)[C@@H](C)O)NC1=O (stereo partly shown) [[^18F]14],slightly polar metabolite in blood (Rf = 40 mm),"[1]; 5 minutes post-injection, radio-TLC",4%
same,another metabolite in blood (Rf = 58 mm),[1]; [3],2.0%
same,highly polar metabolite in blood (4.0 mm),[1]; [3],2.8%
same,radiotracer intact in blood and urine,[1],approximately 99%
same,radiotracer intact in blood and urine,[1]; listed as [18F]14,≥ 99%
C[C@@H](O)[C@@H]1NC(=O)[C@H](CCCCN)NC(=O)[C@@H](Cc2c[nH]c3ccccc23)NC(=O)[C@H](Cc2ccc(O)cc2)NC(=O)[C@@H](NC(=O)[C@@H](Cc2ccccc2)NC(=O)CCOCCOCCOCCOCCON=Cc2ccc(C(=O)NCCOCCOCCOCCNC(=O)OC3CCCc4cnnc(-c5ccc(CC(=O)NCC[N+](C)(C)C[B-](F)(F)F)cc5)c4CC3)cc2)CSSC[C@@H](C(=O)N[C@H](CO)[C@@H](C)O)NC1=O (stereo partly shown) [[^18F]15],"absorbed dose, adrenals",[2]; baseline,0.0190 ± 0.0008 mGy/MBq
same,"absorbed dose, brain",[2]; baseline,0.0102 mGy/MBq
same,"absorbed dose, esophagus",[2]; baseline,0.0129 mGy/MBq
same,"absorbed dose, eyes",[2]; baseline,0.0102 mGy/MBq
same,"absorbed dose, gallbladder wall",[2]; baseline,0.0194 ± 0.0011 mGy/MBq
same,"absorbed dose, heart wall",[2]; baseline,0.0148 mGy/MBq
same,"absorbed dose, kidneys",[2]; baseline,0.0366 ± 0.0016 mGy/MBq
same,"absorbed dose, left colon",[2]; baseline,0.0143 mGy/MBq
same,"absorbed dose, lungs",[2]; baseline,0.0109 mGy/MBq
same,"absorbed dose, osteogenic cells",[2]; baseline,0.0120 mGy/MBq
same,"absorbed dose, pancreas",[2]; baseline,0.0156 ± 0.0002 mGy/MBq
same,"absorbed dose, prostate",[2]; baseline,0.0135 mGy/MBq
same,"absorbed dose, rectum",[2]; baseline,0.0136 mGy/MBq
same,"absorbed dose, red marrow",[2]; baseline,0.0113 mGy/MBq
same,"absorbed dose, right colon",[2]; baseline,0.0151 mGy/MBq
same,"absorbed dose, salivary glands",[2]; baseline,0.0118 mGy/MBq
same,"absorbed dose, small intestine",[2]; baseline,0.0144 mGy/MBq
same,"absorbed dose, spleen",[2]; baseline,0.0137 mGy/MBq
same,"absorbed dose, stomach wall",[2]; baseline,0.0141 mGy/MBq
same,"absorbed dose, testes",[2]; baseline,0.0112 mGy/MBq
same,"absorbed dose, thymus",[2]; baseline,0.0122 mGy/MBq
same,"absorbed dose, thyroid",[2]; baseline,0.0118 mGy/MBq
same,"absorbed dose, total body",[2]; baseline,0.0121 mGy/MBq
same,"absorbed dose, urinary bladder wall",[2]; baseline,0.0134 ± 0.0003 mGy/MBq
same,effective dose,[2]; baseline,0.0112 mSv/MBq
same,"absorbed dose, adrenals","[2]; baseline, listed as [18F]15",0.0190 mGy/MBq
same,"absorbed dose, gallbladder wall","[2]; baseline, listed as [18F]15",0.0194 mGy/MBq
same,"absorbed dose, kidneys","[2]; baseline, listed as [18F]15",0.0366 mGy/MBq
same,"absorbed dose, liver","[2]; baseline, listed as [18F]15",0.0334 mGy/MBq
same,"absorbed dose, pancreas","[2]; baseline, listed as [18F]15",0.0156 mGy/MBq
same,"absorbed dose, urinary bladder wall","[2]; baseline, listed as [18F]15",0.0134 mGy/MBq
same,"absorbed dose, adrenals",[2]; blocked,0.0185 ± 0.0001 mGy/MBq
same,"absorbed dose, brain",[2]; blocked,0.0103 mGy/MBq
same,"absorbed dose, esophagus",[2]; blocked,0.0129 mGy/MBq
same,"absorbed dose, eyes",[2]; blocked,0.0103 mGy/MBq
same,"absorbed dose, gallbladder wall",[2]; blocked,0.0190 ± 0.0011 mGy/MBq
same,"absorbed dose, heart wall",[2]; blocked,0.0150 mGy/MBq
same,"absorbed dose, kidneys",[2]; blocked,0.0337 ± 0.0043 mGy/MBq
same,"absorbed dose, left colon",[2]; blocked,0.0144 mGy/MBq
same,"absorbed dose, liver",[2]; blocked,0.0313 ± 0.0040 mGy/MBq
same,"absorbed dose, lungs",[2]; blocked,0.0106 mGy/MBq
same,"absorbed dose, osteogenic cells",[2]; blocked,0.0121 mGy/MBq
same,"absorbed dose, pancreas",[2]; blocked,0.0154 ± 0.0001 mGy/MBq
same,"absorbed dose, prostate",[2]; blocked,0.0136 mGy/MBq
same,"absorbed dose, rectum",[2]; blocked,0.0137 mGy/MBq
same,"absorbed dose, red marrow",[2]; blocked,0.0114 mGy/MBq
same,"absorbed dose, right colon",[2]; blocked,0.0150 mGy/MBq
same,"absorbed dose, salivary glands",[2]; blocked,0.0119 mGy/MBq
same,"absorbed dose, small intestine",[2]; blocked,0.0145 mGy/MBq
same,"absorbed dose, spleen",[2]; blocked,0.0136 mGy/MBq
same,"absorbed dose, stomach wall",[2]; blocked,0.0141 mGy/MBq
same,"absorbed dose, testes",[2]; blocked,0.0113 mGy/MBq
same,"absorbed dose, thymus",[2]; blocked,0.0122 mGy/MBq
same,"absorbed dose, thyroid",[2]; blocked,0.0119 mGy/MBq
same,"absorbed dose, total body",[2]; blocked,0.0121 mGy/MBq
same,"absorbed dose, urinary bladder wall",[2]; blocked,0.0135 ± 0.0000 mGy/MBq
same,effective dose,[2]; blocked,0.011 mSv/MBq
same,"absorbed dose, adrenals","[2]; blocked, listed as [18F]15",0.0185 mGy/MBq
same,"absorbed dose, gallbladder wall","[2]; blocked, listed as [18F]15",0.0190 mGy/MBq
same,"absorbed dose, kidneys","[2]; blocked, listed as [18F]15",0.0337 mGy/MBq
same,"absorbed dose, liver","[2]; blocked, listed as [18F]15",0.0313 mGy/MBq
same,"absorbed dose, pancreas","[2]; blocked, listed as [18F]15",0.0154 mGy/MBq
same,"absorbed dose, urinary bladder wall","[2]; blocked, listed as [18F]15",0.0135 mGy/MBq
same,"absorbed dose, all organs",[2],below 0.04 mGy/MBq
same,"absorbed dose, all other organs apart from the kidneys and liver",[2],≤ 0.02 mGy/MBq
